Experimental data taken from ChEMBL document CHEMBL1201862, “PubChem BioAssay data set” (2004).
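The compound was tested at five concentrations on cells cultured in 96-well plates, with a 48-hour exposure period. GI50 = concentration required for 50% inhibition of growth.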 The source made the active and inactive calls. Cut-off read from the data, not from the text of the source: active = GI50 up to about 1.1 µM and inactive = higher.

Legend:
Assay in all cases: DTP human tumour cell line panel, 48 h
ACHN = tested on: ACHN
EKVX = tested on: EKVX
SW-620 = tested on: SW-620
HCT-116 = tested on: HCT-116
SF-268 = tested on: SF-268
HL-60 = tested on: HL-60
Malme-3M = tested on: Malme-3M
OVCAR-4 = tested on: OVCAR-4
IGROV-1 = tested on: IGROV-1
HCT-15 = tested on: HCT-15
UO-31 = tested on: UO-31
SF-539 = tested on: SF-539
OVCAR-8 = tested on: OVCAR-8
SK-OV-3 = tested on: SK-OV-3
M14 = tested on: M14
SF-295 = tested on: SF-295
RPMI-8226 = tested on: RPMI-8226
CCRF-CEM = tested on: CCRF-CEM
KM12 = tested on: KM12
HT-29 = tested on: HT-29

Structure (SMILES) | GI50 (ACHN) | GI50 (EKVX) | GI50 (SW-620) | GI50 (HCT-116) | GI50 (SF-268) | GI50 (HL-60) | GI50 (Malme-3M) | GI50 (OVCAR-4) | GI50 (IGROV-1) | GI50 (HCT-15) [µM] | GI50 (UO-31) | GI50 (SF-539) | GI50 (OVCAR-8) | GI50 (SK-OV-3) | GI50 (M14) | GI50 (SF-295) | GI50 (RPMI-8226) | GI50 (CCRF-CEM) | GI50 (KM12) | GI50 (HT-29)
COc1cc(O)c(/C=N/N=C(\N)NO)c(OC)c1 | 9.14 µM (inactive) | > 10 µM (inactive) | > 10 µM (inactive) | 6.19 µM (inactive) | > 10 µM (inactive) | > 10 µM (inactive) | > 10 µM (inactive) | > 10 µM (inactive) | > 10 µM (inactive) | 5.04 | > 10 µM (inactive) | > 10 µM (inactive) | > 10 µM (inactive) | > 10 µM (inactive) | > 10 µM (inactive) | 4.92 µM (inactive) | > 10 µM (inactive) | 5.57 µM (inactive) | 8.18 µM (inactive) | 6.31 µM (inactive)
CN(N)/N=N/c1[nH]cnc1C(N)=O | 22.3 µM (inactive) | 36.1 µM (inactive) | 9.75 µM (inactive) | 9.12 µM (inactive) | 5.52 µM (inactive) | 0.531 µM (active) | 4.55 µM (inactive) | 3.53 µM (inactive) | 9.93 µM (inactive) | 22.8 | 4 µM (inactive) | 13.7 µM (inactive) | 3.14 µM (inactive) | 3.33 µM (inactive) | 3.01 µM (inactive) | 6.14 µM (inactive) | 3.36 µM (inactive) | 2.72 µM (inactive) | 23.7 µM (inactive) | 99.8 µM (inactive)
COC(=O)c1c(C)cccc1C1CN=NC12Cc1c(C)cccc1C2=O (configuration not stated) | 79.3 µM (inactive) | 24.8 µM (inactive) | > 100 µM (inactive) | 68.7 µM (inactive) | > 100 µM (inactive) | 34.9 µM (inactive) | 91.4 µM (inactive) | 35.7 µM (inactive) | > 100 µM (inactive) | 88.1 | 24 µM (inactive) | > 100 µM (inactive) | 44.7 µM (inactive) | > 100 µM (inactive) | 83.2 µM (inactive) | 51.2 µM (inactive) | 46.5 µM (inactive) | > 100 µM (inactive) | 46.6 µM (inactive) | 90.2 µM (inactive)
CCOC(=O)CNC(SC)=C(C#N)C#N | – | > 100 µM (inactive) | > 100 µM (inactive) | > 100 µM (inactive) | > 100 µM (inactive) | > 100 µM (inactive) | > 100 µM (inactive) | > 100 µM (inactive) | > 100 µM (inactive) | > 100 | 36.7 µM (inactive) | > 100 µM (inactive) | > 100 µM (inactive) | > 100 µM (inactive) | > 100 µM (inactive) | > 100 µM (inactive) | > 100 µM (inactive) | > 100 µM (inactive) | > 100 µM (inactive) | > 100 µM (inactive)
CCOS(=O)(=O)c1ccc(-c2c3nc(c(-c4ccc(S(=O)(=O)OCC)cc4)c4ccc([nH]4)c(-c4ccc(S(=O)(=O)OCC)cc4)c4nc(c(-c5ccc(S(=O)(=O)OCC)cc5)c5ccc2[nH]5)C=C4)C=C3)cc1 | > 31.6 µM (inactive) | > 31.6 µM (inactive) | > 31.6 µM (inactive) | > 31.6 µM (inactive) | > 31.6 µM (inactive) | > 31.6 µM (inactive) | 17.7 µM (inactive) | > 31.6 µM (inactive) | > 100 µM (inactive) | > 31.6 | 24.8 µM (inactive) | 8.13 µM (inactive) | > 31.6 µM (inactive) | > 31.6 µM (inactive) | > 31.6 µM (inactive) | > 31.6 µM (inactive) | > 31.6 µM (inactive) | > 31.6 µM (inactive) | > 31.6 µM (inactive) | > 100 µM (inactive)
O=c1c2cc3c(cc2c2cccc4c2n1CCC4)OCO3 | 33.7 µM (inactive) | 33 µM (inactive) | 29.4 µM (inactive) | 23.4 µM (inactive) | – | 53.8 µM (inactive) | 86.1 µM (inactive) | 88.9 µM (inactive) | 36.1 µM (inactive) | 36.7 | 22.4 µM (inactive) | 30.4 µM (inactive) | 48.1 µM (inactive) | 55.3 µM (inactive) | 46.9 µM (inactive) | 33.8 µM (inactive) | 30.2 µM (inactive) | 89.3 µM (inactive) | 33.3 µM (inactive) | 51.1 µM (inactive)
COc1cc2noc(-c3ccccc3)c2cc1OC | 87.1 µM (inactive) | – | 57.3 µM (inactive) | 60.1 µM (inactive) | 54 µM (inactive) | 40.1 µM (inactive) | > 100 µM (inactive) | > 100 µM (inactive) | > 100 µM (inactive) | 38.7 | 34.8 µM (inactive) | 10.6 µM (inactive) | 64.4 µM (inactive) | 63 µM (inactive) | 55.6 µM (inactive) | 19 µM (inactive) | 18.7 µM (inactive) | 42.5 µM (inactive) | 29 µM (inactive) | 36.6 µM (inactive)
